Measurements from patent US20250195521A1 (Revolution Medicines, Inc., priority 2020, published 2025).

What was measured:
[1] = test system: Capan-1 cells (K-Ras G12V); test: CellTiter-Glo cell viability, Capan-1; type: cell-based, human; settings: Homo sapiens, CAPAN-1, 120 h, K-Ras G12V, 5-day treatment; read-out: Capan-1 Cell Viability IC50
In short: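 Five-day treatment of K-Ras mutant cells with directly dispensed compound; ATP-based luminescence endpoint. Percent of DMSO signal fit to four-parameter logistic curve.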

KRAS G13D = KRAS G13D (Homo sapiens (Human), UniProt P01116+P62937, G13D); test: Ras-Raf disruption/FRET/MOA assay (BRAF RBD, Cyclophilin A); type: biochemical; settings: read-out: KRAS G13D FRET data IC50
Sequence of KRAS G13D (P01116 other isoform, or with tags, fused parts or gaps G13D): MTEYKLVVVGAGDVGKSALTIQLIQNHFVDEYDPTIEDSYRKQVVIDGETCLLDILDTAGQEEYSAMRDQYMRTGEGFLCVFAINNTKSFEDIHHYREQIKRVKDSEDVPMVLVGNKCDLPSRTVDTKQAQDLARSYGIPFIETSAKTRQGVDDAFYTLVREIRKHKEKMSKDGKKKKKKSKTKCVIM
Sequence of KRAS G13D (P62937 whole entry): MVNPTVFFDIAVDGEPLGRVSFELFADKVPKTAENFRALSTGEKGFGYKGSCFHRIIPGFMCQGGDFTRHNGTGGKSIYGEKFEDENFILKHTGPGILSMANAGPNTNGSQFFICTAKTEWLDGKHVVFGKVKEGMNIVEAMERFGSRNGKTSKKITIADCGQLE
In short: (§1)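 TR-FRET read after 1.5 h with 10 nM anti-His Eu-W1024 and 50 nM anti-GST APC, following 3 h at 25 °C of GMPPNP-loaded His6-Ras (12.5 nM), GST-BRAF RBD (50 nM) and Cyclophilin A (25 μM) with compound from 30 μM final, 10 points, 3-fold. IC50 reported; pH 7.3 HEPES, 100 mM NaCl.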

KRAS G13C = KRAS G13C (Homo sapiens (Human), UniProt P01116+P62937, G13C); test: as above; type: biochemical; settings: read-out: KRAS G13C FRET IC50
Sequence of KRAS G13C (P01116 other isoform, or with tags, fused parts or gaps G13C): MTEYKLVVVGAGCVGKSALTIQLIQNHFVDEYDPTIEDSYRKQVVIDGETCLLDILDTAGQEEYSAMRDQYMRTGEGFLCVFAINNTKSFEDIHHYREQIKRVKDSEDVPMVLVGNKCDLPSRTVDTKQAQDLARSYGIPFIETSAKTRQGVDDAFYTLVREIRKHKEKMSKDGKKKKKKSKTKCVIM
Sequence of KRAS G13C (P62937 whole entry): as the sequence (P62937 whole entry) above
In short: as §1

NRAS G12C = NRAS G12C (Homo sapiens (Human), UniProt P01111+P62937, G12C); test: as above; type: biochemical; settings: read-out: NRAS G12C FRET data IC50
Sequence of NRAS G12C (P01111 whole entry G12C): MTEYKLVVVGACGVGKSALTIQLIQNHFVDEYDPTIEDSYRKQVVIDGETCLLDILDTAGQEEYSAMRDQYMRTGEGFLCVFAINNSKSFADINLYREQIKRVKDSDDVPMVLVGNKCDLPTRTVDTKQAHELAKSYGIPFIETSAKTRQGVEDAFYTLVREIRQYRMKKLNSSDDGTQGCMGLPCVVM
Sequence of NRAS G12C (P62937 whole entry): as the sequence (P62937 whole entry) above
In short: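 First, 25 μM Cyclophilin A, 12.5 nM His6-Ras-GMPPNP and 50 nM GST-BRAF RBD are mixed with diluted compound at pH 7.3. Next, 3 h at 25° C. Then 10 nM anti-His Eu-W1024 plus 50 nM anti-GST allophycocyanin for 1.5 h before TR-FRET reading.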

KRAS G12C = KRAS G12C (Homo sapiens (Human), UniProt P01116+P62937, G12C); test: as above; type: biochemical; settings: read-out: KRAS G12C FRET IC50
Sequence of KRAS G12C (P01116-2 other isoform, or with tags, fused parts or gaps G12C): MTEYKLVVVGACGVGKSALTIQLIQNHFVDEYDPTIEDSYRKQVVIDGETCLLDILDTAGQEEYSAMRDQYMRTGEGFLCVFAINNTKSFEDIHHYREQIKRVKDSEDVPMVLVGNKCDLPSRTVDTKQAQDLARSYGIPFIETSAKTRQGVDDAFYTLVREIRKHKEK
Sequence of KRAS G12C (P62937 whole entry): as the sequence (P62937 whole entry) above
In short: as §1

KRAS WT = KRAS WT (Homo sapiens (Human), UniProt P01116+P62937); test: as above; type: biochemical; settings: read-out: KRAS WT FRET data IC50
Sequence of KRAS WT (P01116 other isoform, or with tags, fused parts or gaps): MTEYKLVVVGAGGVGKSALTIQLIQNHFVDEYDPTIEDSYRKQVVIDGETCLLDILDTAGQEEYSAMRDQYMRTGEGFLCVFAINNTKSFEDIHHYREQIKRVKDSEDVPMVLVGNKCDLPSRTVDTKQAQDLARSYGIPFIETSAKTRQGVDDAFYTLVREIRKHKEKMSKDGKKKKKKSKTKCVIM
Sequence of KRAS WT (P62937 whole entry): as the sequence (P62937 whole entry) above
In short: as §1

KRAS G12V = KRAS G12V (Homo sapiens (Human), UniProt P01116+P62937, G12V); test: as above; type: biochemical; settings: read-out: KRAS G12V FRET IC50
Sequence of KRAS G12V (P01116 other isoform, or with tags, fused parts or gaps G12V): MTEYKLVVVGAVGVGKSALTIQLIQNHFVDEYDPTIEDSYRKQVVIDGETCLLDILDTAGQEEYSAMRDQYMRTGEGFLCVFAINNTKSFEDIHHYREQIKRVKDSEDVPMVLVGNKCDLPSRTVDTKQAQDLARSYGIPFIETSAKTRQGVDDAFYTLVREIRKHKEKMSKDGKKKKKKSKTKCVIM
Sequence of KRAS G12V (P62937 whole entry): as the sequence (P62937 whole entry) above
In short: as §1

KRAS G12S = KRAS G12S (Homo sapiens (Human), UniProt P01116+P62937, G12S); test: as above; type: biochemical; settings: read-out: KRAS G12S FRET IC50
Sequence of KRAS G12S (P01116 other isoform, or with tags, fused parts or gaps G12S): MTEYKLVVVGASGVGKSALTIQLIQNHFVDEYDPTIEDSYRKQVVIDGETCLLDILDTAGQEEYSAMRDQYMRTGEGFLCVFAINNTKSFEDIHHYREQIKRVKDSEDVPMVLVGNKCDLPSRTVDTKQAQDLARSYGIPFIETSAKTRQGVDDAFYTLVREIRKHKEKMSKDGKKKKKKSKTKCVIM
Sequence of KRAS G12S (P62937 whole entry): as the sequence (P62937 whole entry) above
In short: as §1

KRAS G12D = KRAS G12D (Homo sapiens (Human), UniProt P01116+P62937, G12D); test: as above; type: biochemical; settings: read-out: KRAS G12D FRET IC50
Sequence of KRAS G12D (P01116 other isoform, or with tags, fused parts or gaps G12D): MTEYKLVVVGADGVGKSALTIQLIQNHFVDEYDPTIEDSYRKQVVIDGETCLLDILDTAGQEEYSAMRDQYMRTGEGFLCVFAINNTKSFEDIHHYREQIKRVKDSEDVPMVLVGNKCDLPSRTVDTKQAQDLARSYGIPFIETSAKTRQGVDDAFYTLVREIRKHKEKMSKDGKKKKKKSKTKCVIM
Sequence of KRAS G12D (P62937 whole entry): as the sequence (P62937 whole entry) above
In short: as §1

[2] = test system: K-Ras G12C (NCI-H358 cells); test: Potency assay: pERK in NCI-H358 cells; type: cell-based, human; settings: Homo sapiens; NCI-H358 cells, 4 hours; read-out: pERK EC50 (H358 KRAS G12C)
In short: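 Cells plated the day before were exposed for 4 h at 37° C, 5% CO2 to a 10-point, 3-fold DMSO dilution series (10 mM top stock), in duplicate. Phospho-ERK was read by AlphaLISA SureFire Ultra or by In-Cell Western with DRAQ5 DNA stain, and IC50 came from a 4-parameter sigmoidal fit.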

[3] = test system: NCI-H358 cells (K-Ras G12C); test: CellTiter-Glo cell viability, NCI-H358; type: cell-based, human; settings: Homo sapiens, NCI-H358, 120 h, K-Ras G12C, 5-day treatment; read-out: H358 Cell Viability IC50
Protocol: Note—The following protocol describes a procedure for monitoring cell viability of K-Ras mutant cancer cell lines in response to a compound of the invention. Other RAS isoforms may be employed, though the number of cells to be seeded will vary based on cell line used.
Test compounds (132.5 nl) were directly dispensed into the assay plates containing cells. […] On day 5, assay plates and their contents were equilibrated to room temperature for approximately 30 minutes. […] Luminescence was measured using the PerkinElmer Enspire. Data were normalized by the following: (Sample signal/Avg. DMSO)*100. The data were fit using a four-parameter logistic fit.

Compound | IC50 [1] [nM] | IC50 (KRAS G13D) [nM] | IC50 (KRAS G13C) [nM] | IC50 (NRAS G12C) [nM] | IC50 (KRAS G12C) [nM] | IC50 (KRAS WT) [nM] | IC50 (KRAS G12V) [nM] | IC50 (KRAS G12S) [nM] | IC50 (KRAS G12D) [nM] | EC50 [2] [nM] | IC50 [3] [nM]
CCn1c(-c2cccnc2[C@H](C)OC)c2c3cc(ccc31)-c1cc(O)cc(c1)C[C@H](NC(=O)[C@H](C(C)C)N(C)C(=O)[C@H]1CCN(C(=O)[C@@H]3CCCN3)C1)C(=O)N1CCC[C@H](N1)C(=O)OCC(C)(C)C2 [Compound A370] | 1000 to 10000 | 10 to 100 | 10 to 100 | 10 to 100 | 10 to 100 | 10 to 100 | 10 to 100 | 10 to 100 | 10 to 100 | < 5000 | 
CCn1c(-c2cccnc2[C@H](C)OC)c2c3cc(ccc31)-c1cc(O)cc(c1)C[C@H](NC(=O)[C@H](C(C)C)N(C)C(=O)[C@H]1CCN(C(=O)[C@H]3CCCN3C)C1)C(=O)N1CCC[C@H](N1)C(=O)OCC(C)(C)C2 [Compound A371] | 1000 to 10000 | 10 to 100 | 10 to 100 | 10 to 100 | 10 to 100 | 10 to 100 | 10 to 100 | 10 to 100 | 10 to 100 | < 5000 | 
CCn1c(-c2cccnc2[C@H](C)OC)c2c3cc(ccc31)-c1csc(n1)C[C@H](NC(=O)[C@H](C(C)C)N(C)C(=O)N1CC[C@@H](O)C1)C(=O)N1CCC[C@H](N1)C(=O)OCC(C)(C)C2 [Compound A376] | 10 to 100 |  |  |  |  |  |  |  |  | < 5000 | 10 to 100
CCn1c(-c2cccnc2[C@H](C)OC)c2c3cc(ccc31)-c1cc(O)cc(c1)C[C@H](NC(=O)[C@H](C(C)C)N(C)C(=O)[C@H]1CCN(C(=O)[C@]3(C)CCCN3)C1)C(=O)N1CCC[C@H](N1)C(=O)OCC(C)(C)C2 [Compound A380] | 1000 to 10000 | 10 to 100 | 10 to 100 | 10 to 100 | 10 to 100 | 10 to 100 | 10 to 100 | 10 to 100 | 10 to 100 | < 5000 | 
CCn1c(-c2cccnc2[C@H](C)OC)c2c3cc(ccc31)-c1cc(O)cc(c1)C[C@H](NC(=O)[C@H](C(C)C)N(C)C(=O)[C@H]1CCCC[C@@H]1N)C(=O)N1CCC[C@H](N1)C(=O)OCC(C)(C)C2 [Compound A394] | 1000 to 10000 | 100 to 1000 | 10 to 100 | 100 to 1000 | 100 to 1000 | 100 to 1000 | 100 to 1000 | 100 to 1000 | 100 to 1000 | < 5000 | 
CCn1c(-c2cccnc2[C@H](C)OC)c2c3cc(ccc31)-c1cc(O)cc(c1)C[C@H](NC(=O)[C@H](C(C)C)N(C)C(=O)[C@H]1CCCC[C@H]1N)C(=O)N1CCC[C@H](N1)C(=O)OCC(C)(C)C2 [Compound A419] | 100 to 1000 | 10 to 100 | 10 to 100 | 10 to 100 | 10 to 100 | 10 to 100 | 100 to 1000 | 10 to 100 | 10 to 100 | < 5000 | 
CCn1c(-c2cccnc2[C@H](C)OC)c2c3cc(ccc31)-c1csc(n1)C[C@H](NC(=O)[C@H](C(C)C)N(C)C(=O)N1CC([C@@H](C)N(C)C)C1)C(=O)N1CCC[C@H](N1)C(=O)OCC(C)(C)C2 [Compound A458] | 10 to 100 |  |  |  |  |  |  |  |  | < 5000 | 10 to 100
CCn1c(-c2cccnc2[C@H](C)OC)c2c3cc(ccc31)-c1csc(n1)C[C@H](NC(=O)[C@H](C(C)C)N(C)C(=O)N1CCC[C@@H](N(C)C)C1)C(=O)N1CCC[C@H](N1)C(=O)OCC(C)(C)C2 [Compound A531] | 10 to 100 |  |  |  |  |  |  |  |  | < 5000 | 10 to 100
CCn1c(-c2cccnc2[C@H](C)OC)c2c3cc(ccc31)-c1csc(n1)C[C@H](NC(=O)[C@H](C(C)C)N(C)C(=O)N(C)[C@@H]1CCCN(C)C1)C(=O)N1CCC[C@H](N1)C(=O)OCC(C)(C)C2 [Compound A587] |  |  |  |  |  |  |  |  |  | < 5000 | 10 to 100
